Legend:
Vero E6 [1] = assay: drug sensitivity score (DSS) for viability; higher = more toxic; extreme values may be limits of the assay; details: 72 h
U2OS [2] = assay: as above; details: 72 h
Calu-3 [3] = assay: as above; details: 72 h
HepG2 [4] = assay: as above; details: 72 h
[5] = test system: A549-ACE2 infected with SARS-CoV-2; assay: morphology score (similarity to uninfected cells); higher = more like uninfected cells; details: 24 h
Vero E6 [6] = assay: cell viability relative to DMSO; higher = less toxic; details: 72 h
U2OS [7] = assay: as above; details: 72 h
Calu-3 [8] = assay: as above; details: 72 h
HepG2 [9] = assay: as above; details: 72 h
Caco-2 [10] = assay: as above; details: 72 h
Vero E6 [11] = assay: relative viability EC50 (midpoint between 100% and the lowest measured viability); higher = less toxic; details: 72 h
U2OS [12] = assay: as above; details: 72 h
Calu-3 [13] = assay: as above; details: 72 h
Caco-2 [14] = assay: drug sensitivity score (DSS) for viability; higher = more toxic; extreme values may be limits of the assay; details: 72 h
[15] = test system: A549-ACE2 infected with SARS-CoV-2; assay: SARS-CoV-2 infection rate relative to DMSO; higher = more infection; details: 24 h
A549-ACE2 [16] = assay: drug-induced phospholipidosis relative to tamoxifen; higher = more phospholipidosis
A549-ACE2 [17] = assay: phospholipidosis EC50; higher = less potent phospholipidosis inducer
[18] = test system: A549-ACE2 infected with SARS-CoV-2; assay: cell count relative to DMSO; higher = less toxic; details: 24 h
HepG2 [19] = assay: relative viability EC50 (midpoint between 100% and the lowest measured viability); higher = less toxic; details: 72 h
Caco-2 [20] = assay: as above; details: 72 h

C[C@@H]1C[C@@H]([C@H](O)CC2CC(=O)NC(=O)C2)C(=O)[C@@H](C)C1 [cycloheximide]
Details	drug sensitivity score
Calu-3 [3]	7.3
HepG2 [4]	14.3
U2OS [2]	13.8
Vero E6 [1]	13.8

[5]
Details	morphology score
0.3 µM	0.91
3 µM	0.69
10 µM	0.52
30 µM	0.48

CCCCCCCCNC(=O)/C(C#N)=C/c1cn(CCCN(C)C)c2ccccc12 [dynole-34-2]
Details	SARS-CoV-2 infection rate [%]	cell count [%]	cell viability [%]	morphology score	phospholipidosis EC50 [µM]
A549-ACE2 [17], 24 h	–	–	–	–	0.825
A549-ACE2 [17], 48 h	–	–	–	–	3.88
A549-ACE2 [17], 72 h	–	–	–	–	6.62
Caco-2 [10], 1 nM	–	–	97.3	–	–
Caco-2 [10], 10 nM	–	–	100	–	–
Caco-2 [10], 100 nM	–	–	103	–	–
Caco-2 [10], 1000 nM	–	–	95.5	–	–
Caco-2 [10], 10000 nM	–	–	63.9	–	–
Calu-3 [8], 1 nM	–	–	98.3	–	–
Calu-3 [8], 10 nM	–	–	96.7	–	–
Calu-3 [8], 100 nM	–	–	105	–	–
Calu-3 [8], 1000 nM	–	–	93.1	–	–
Calu-3 [8], 10000 nM	–	–	-0.1	–	–
HepG2 [9], 1 nM	–	–	96.5	–	–
HepG2 [9], 10 nM	–	–	93.4	–	–
HepG2 [9], 100 nM	–	–	97.9	–	–
HepG2 [9], 1000 nM	–	–	95.8	–	–
HepG2 [9], 10000 nM	–	–	62	–	–
U2OS [7], 1 nM	–	–	104	–	–
U2OS [7], 10 nM	–	–	104	–	–
U2OS [7], 100 nM	–	–	99	–	–
U2OS [7], 1000 nM	–	–	102	–	–
U2OS [7], 10000 nM	–	–	5.2	–	–
Vero E6 [6], 1 nM	–	–	104	–	–
Vero E6 [6], 10 nM	–	–	102	–	–
Vero E6 [6], 100 nM	–	–	102	–	–
Vero E6 [6], 1000 nM	–	–	98.6	–	–
Vero E6 [6], 10000 nM	–	–	91.2	–	–
[5], 0.3 µM	–	–	–	-0.05	–
[15], 0.3 µM	105	–	–	–	–
[18], 0.3 µM	–	97	–	–	–

Details	drug sensitivity score	relative viability EC50 [µM]
Caco-2 [14]	2.5	–
Calu-3 [3]	6.6	–
Calu-3 [13]	–	2.61
HepG2 [4]	2.6	–
U2OS [2]	5.1	–
U2OS [12]	–	3.29
Vero E6 [1]	0	–
Vero E6 [11]	–	> 10

drug-induced phospholipidosis [%], A549-ACE2 [16]
Details	0.3 µM	0.833333 µM	3.33333 µM	6.66667 µM	10 µM
24 h	1.06	56.4	87.1	96.8	112
48 h	1.92	50.3	46.7	92	119
72 h	2.02	41.5	27.6	81.2	120

Cc1[nH]cnc1-c1ccc(Cl)cc1 [lofemizole]
Details	SARS-CoV-2 infection rate, [15] [%]	cell count, [18] [%]	cell viability, Caco-2 [10] [%]	cell viability, HepG2 [9] [%]	cell viability, U2OS [7] [%]	cell viability, Vero E6 [6] [%]	morphology score, [5]
1 nM	–	–	98.4	99.4	95.9	103	–
10 nM	–	–	94.9	102	97.2	97	–
100 nM	–	–	95.2	105	97.5	96.5	–
0.3 µM	94	97	–	–	–	–	0.05
1000 nM	–	–	98.7	93	99.2	96.7	–
3 µM	104	102	–	–	–	–	0.07
10000 nM	–	–	101	107	103	102	–
10 µM	105	100	–	–	–	–	-0.16
30 µM	100	94	–	–	–	–	-0.13

Details	drug sensitivity score	relative viability EC50 [µM]
Caco-2 [14]	0	–
Caco-2 [20]	–	> 10
HepG2 [4]	0	–
HepG2 [19]	–	> 10
U2OS [2]	0	–
U2OS [12]	–	> 10
Vero E6 [1]	0	–
Vero E6 [11]	–	> 10

drug-induced phospholipidosis [%], A549-ACE2 [16]
Details	0.3 µM	0.833333 µM	3.33333 µM	6.66667 µM	10 µM	30 µM
24 h	3.89	-1.13	0.51	-0.91	0.71	5.39
48 h	4.07	0.92	2.92	3.98	3.67	11.9
72 h	4.05	0.285	0.756	2.05	2.84	12.6

C#C[C@]1(O)CC[C@H]2[C@@H]3CCc4cc(OC5CCCC5)ccc4[C@H]3CC[C@@]21C [quinestrol]
Details	SARS-CoV-2 infection rate, [15] [%]	cell count, [18] [%]	cell viability, Caco-2 [10] [%]	cell viability, Calu-3 [8] [%]	cell viability, HepG2 [9] [%]	cell viability, U2OS [7] [%]	cell viability, Vero E6 [6] [%]	morphology score, [5]
1 nM	–	–	99.4	97.9	92.1	102	98.4	–
10 nM	–	–	92.1	98.6	93.2	98.9	104	–
100 nM	–	–	98.7	99.8	88.9	104	100	–
0.3 µM	103	105	–	–	–	–	–	-0.03
1000 nM	–	–	96.5	91.1	95.5	100	104	–
3 µM	85	110	–	–	–	–	–	0.43
10000 nM	–	–	67.8	41	76.6	93.8	87.4	–
10 µM	41	85	–	–	–	–	–	0.68
30 µM	42	23	–	–	–	–	–	0.01

Details	drug sensitivity score	relative viability EC50 [µM]
Caco-2 [14]	2	–
Calu-3 [3]	4.7	–
Calu-3 [13]	–	1.98
HepG2 [4]	1.3	–
HepG2 [19]	–	> 10
U2OS [2]	0	–
U2OS [12]	–	> 10
Vero E6 [1]	0	–
Vero E6 [11]	–	> 10

drug-induced phospholipidosis [%], A549-ACE2 [16]
Details	0.3 µM	0.833333 µM	3.33333 µM	6.66667 µM	10 µM	30 µM
24 h	11.1	13.7	17.2	16.9	13.9	23.3
48 h	12.2	17.8	21.2	25.8	23.6	37.6
72 h	8.56	16.2	19.1	27.3	29.2	–

CNC(=O)c1cc(Oc2ccc(NC(=O)Nc3ccc(Cl)c(C(F)(F)F)c3)cc2)ccn1 [sorafenib]
Details	SARS-CoV-2 infection rate, [15] [%]	cell count, [18] [%]	cell viability, Caco-2 [10] [%]	cell viability, Calu-3 [8] [%]	cell viability, HepG2 [9] [%]	cell viability, U2OS [7] [%]	cell viability, Vero E6 [6] [%]	morphology score, [5]
1 nM	–	–	95.1	107	105	98.7	97.4	–
10 nM	–	–	93.2	104	113	99.1	98.9	–
100 nM	–	–	96.1	109	99.2	103	104	–
0.1 µM	110	97	–	–	–	–	–	-0.27
0.3 µM	103	101	–	–	–	–	–	-0.32
1000 nM	–	–	99.1	108	80.5	111	113	–
1 µM	116	92	–	–	–	–	–	-0.4
3 µM	103	93	–	–	–	–	–	-0.27
10000 nM	–	–	47.9	82.2	12.7	39.7	55.6	–

Details	drug sensitivity score	relative viability EC50 [µM]
Caco-2 [14]	2.9	–
Caco-2 [20]	–	3.04
Calu-3 [3]	0.2	–
Calu-3 [13]	–	> 10
HepG2 [4]	7.9	–
HepG2 [19]	–	1.64
U2OS [2]	2.6	–
U2OS [12]	–	3.88
Vero E6 [1]	1.7	–

drug-induced phospholipidosis [%], A549-ACE2 [16]
Details	0.3 µM	0.833333 µM	3.33333 µM	6.66667 µM	10 µM	30 µM
24 h	-0.66	-4.32	-10.5	-0.85	-20.6	-18.5
48 h	0.68	-2.57	-3.57	0.31	–	–
72 h	3.23	-1.46	-1.25	-4.18	–	–
